# Measurements published in PubChem BioAssay AID1919000 (Molecular Pharmacology Branch, DTP, NCI, 2023).
# System: 653999-131-R-J2-PDC complex spheroids, growth % test/control
# Assay: Anticancer human tumor 653999-131-R-J2-PDC patient-derived lung adenocarcinoma cell line growth inhibition [AhR]
# Details: for IC50: curve of first compound; for viability, T/C: stronger effect = lower value
# Summary of the method: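 Complex tumor spheroids co-cultured with HUVEC and human MSC stroma; AhR antagonists tested in combination with standard-of-care and investigational agents. Top concentration at or near clinical Cmax (else 10 microM), half-log dilutions; growth expressed as percent test/control.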
# [1] = second compound 0.1 µM, first compound 0.000949 µM
# [2] = second compound 0.1 µM, first compound 0.003 µM
# [3] = second compound 0.1 µM, first compound 0.00949 µM
# [4] = second compound 0.1 µM, first compound 0.03 µM
# [5] = second compound 0.1 µM, first compound 0.0949 µM
# [6] = second compound 0.1 µM, first compound 0.3 µM
# [7] = second compound 0.316 µM, first compound 0.000949 µM
# [8] = second compound 0.316 µM, first compound 0.003 µM
# [9] = second compound 0.316 µM, first compound 0.00949 µM
# [10] = second compound 0.316 µM, first compound 0.03 µM
# [11] = second compound 0.316 µM, first compound 0.0949 µM
# [12] = second compound 0.316 µM, first compound 0.3 µM
# [13] = second compound 1 µM, first compound 0.000949 µM
# [14] = second compound 1 µM, first compound 0.003 µM
# [15] = second compound 1 µM, first compound 0.00949 µM
# [16] = second compound 1 µM, first compound 0.03 µM
# [17] = second compound 1 µM, first compound 0.0949 µM
# [18] = second compound 1 µM, first compound 0.3 µM
# [19] = second compound 3.16 µM, first compound 0.000949 µM
# [20] = second compound 3.16 µM, first compound 0.003 µM
# [21] = second compound 3.16 µM, first compound 0.00949 µM
# [22] = second compound 3.16 µM, first compound 0.03 µM
# [23] = second compound 3.16 µM, first compound 0.0949 µM
# [24] = second compound 3.16 µM, first compound 0.3 µM
# [25] = second compound 10 µM, first compound 0.000949 µM
# [26] = second compound 10 µM, first compound 0.003 µM
# [27] = second compound 10 µM, first compound 0.00949 µM
# [28] = second compound 10 µM, first compound 0.03 µM
# [29] = second compound 10 µM, first compound 0.0949 µM
# [30] = second compound 10 µM, first compound 0.3 µM
# 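Also: spheroids exposed to agents for seven days.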
# 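For viability, T/C in this document: 100% = DMSO vehicle control viability.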
structure (smiles),measurement,setting,value
CC(C)c1c(-c2ccccc2)nc2c(C#N)c[nH]n2c1=O + Cc1ccccc1N=Nc1ccc(NC(=O)c2ccnn2C)c(C)c1,IC50,second compound 0.1 µM,> 10000 nM
same,IC50,second compound 0.316 µM,> 10000 nM
same,IC50,second compound 1 µM,> 10000 nM
same,IC50,second compound 3.16 µM,> 10000 nM
same,IC50,second compound 10 µM,> 10000 nM
same,"viability, T/C","second compound 0.1 µM, first compound 0.0316 µM",97.4%
same,"viability, T/C","second compound 0.1 µM, first compound 0.1 µM",101%
same,"viability, T/C","second compound 0.1 µM, first compound 0.316 µM",107%
same,"viability, T/C","second compound 0.1 µM, first compound 1 µM",95.6%
same,"viability, T/C","second compound 0.1 µM, first compound 3.16 µM",98.5%
same,"viability, T/C","second compound 0.1 µM, first compound 10 µM",99.1%
same,"viability, T/C","second compound 0.316 µM, first compound 0.0316 µM",96.5%
same,"viability, T/C","second compound 0.316 µM, first compound 0.1 µM",105%
same,"viability, T/C","second compound 0.316 µM, first compound 0.316 µM",103%
same,"viability, T/C","second compound 0.316 µM, first compound 1 µM",98.9%
same,"viability, T/C","second compound 0.316 µM, first compound 3.16 µM",98.2%
same,"viability, T/C","second compound 0.316 µM, first compound 10 µM",111%
same,"viability, T/C","second compound 1 µM, first compound 0.0316 µM",106%
same,"viability, T/C","second compound 1 µM, first compound 0.1 µM",126%
same,"viability, T/C","second compound 1 µM, first compound 0.316 µM",108%
same,"viability, T/C","second compound 1 µM, first compound 1 µM",105%
same,"viability, T/C","second compound 1 µM, first compound 3.16 µM",109%
same,"viability, T/C","second compound 1 µM, first compound 10 µM",104%
same,"viability, T/C","second compound 3.16 µM, first compound 0.0316 µM",99.4%
same,"viability, T/C","second compound 3.16 µM, first compound 0.1 µM",115%
same,"viability, T/C","second compound 3.16 µM, first compound 0.316 µM",107%
same,"viability, T/C","second compound 3.16 µM, first compound 1 µM",92.8%
same,"viability, T/C","second compound 3.16 µM, first compound 3.16 µM",90.3%
same,"viability, T/C","second compound 3.16 µM, first compound 10 µM",105%
same,"viability, T/C","second compound 10 µM, first compound 0.0316 µM",97.5%
same,"viability, T/C","second compound 10 µM, first compound 0.1 µM",105%
same,"viability, T/C","second compound 10 µM, first compound 0.316 µM",111%
same,"viability, T/C","second compound 10 µM, first compound 1 µM",92.7%
same,"viability, T/C","second compound 10 µM, first compound 3.16 µM",107%
same,"viability, T/C","second compound 10 µM, first compound 10 µM",108%
CC(C)CC(NC(=O)C(Cc1ccccc1)NC(=O)c1cnccn1)B(O)O (stereo not given) + CC(CO)NC(=O)c1cc(-c2ccc(Cl)cc2)nn(-c2cnn(C)c2)c1=O,IC50,second compound 0.1 µM,14.1 nM
same,IC50,second compound 0.316 µM,13.4 nM
same,IC50,second compound 1 µM,15.4 nM
same,IC50,second compound 3.16 µM,15.7 nM
same,IC50,second compound 10 µM,16.4 nM
same,"viability, T/C",[1],108%
same,"viability, T/C",[2],116%
same,"viability, T/C",[3],65.1%
same,"viability, T/C",[4],20.3%
same,"viability, T/C",[5],9.49%
same,"viability, T/C",[6],3.53%
same,"viability, T/C",[7],111%
same,"viability, T/C",[8],121%
same,"viability, T/C",[9],64.6%
same,"viability, T/C",[10],17.8%
same,"viability, T/C",[11],11.5%
same,"viability, T/C",[12],2.06%
same,"viability, T/C",[13],101%
same,"viability, T/C",[14],122%
same,"viability, T/C",[15],73.4%
same,"viability, T/C",[16],19.5%
same,"viability, T/C",[17],14.9%
same,"viability, T/C",[18],4.87%
same,"viability, T/C",[19],121%
same,"viability, T/C",[20],120%
same,"viability, T/C",[21],73.3%
same,"viability, T/C",[22],20.1%
same,"viability, T/C",[23],12.1%
same,"viability, T/C",[24],4.74%
same,"viability, T/C",[25],99.5%
same,"viability, T/C",[26],117%
same,"viability, T/C",[27],74.5%
same,"viability, T/C",[28],22.1%
same,"viability, T/C",[29],12.8%
same,"viability, T/C",[30],2.47%
Nc1ncn(C2CC(O)C(CO)S2)c(=O)n1 (stereo not given) + Cc1cncc(-c2nc(NCCc3c[nH]c4ccccc34)c3ncn(C(C)C)c3n2)c1,IC50,second compound 0.1 µM,> 300 nM
same,IC50,second compound 0.316 µM,> 300 nM
same,IC50,second compound 1 µM,> 300 nM
same,IC50,second compound 3.16 µM,> 300 nM
same,IC50,second compound 10 µM,> 300 nM
same,"viability, T/C",[1],106%
same,"viability, T/C",[2],95.4%
same,"viability, T/C",[3],93.7%
same,"viability, T/C",[4],90.4%
same,"viability, T/C",[5],93.2%
same,"viability, T/C",[6],82.5%
same,"viability, T/C",[7],102%
same,"viability, T/C",[8],99.8%
same,"viability, T/C",[9],101%
same,"viability, T/C",[10],94.3%
same,"viability, T/C",[11],88.7%
same,"viability, T/C",[12],85.7%
same,"viability, T/C",[13],106%
same,"viability, T/C",[14],111%
same,"viability, T/C",[15],121%
same,"viability, T/C",[16],109%
same,"viability, T/C",[17],106%
same,"viability, T/C",[18],103%
same,"viability, T/C",[19],84.1%
same,"viability, T/C",[20],87.8%
same,"viability, T/C",[21],93.4%
same,"viability, T/C",[22],84.7%
same,"viability, T/C",[23],66.5%
same,"viability, T/C",[24],73%
same,"viability, T/C",[25],65%
same,"viability, T/C",[26],50.9%
same,"viability, T/C",[27],58%
same,"viability, T/C",[28],44%
same,"viability, T/C",[29],53%
same,"viability, T/C",[30],52.7%
